# From patent EP1541559A1, “5-SUBSTITUTED ISOQUINOLINE DERIVATIVE” (Asahi Kasei Pharma Corporation, priority 2002, dated 2004)
# Where a name gives a salt, the structure may show the parent alone. Read-outs that look alike come from different tables or passages of the source.
# Tests used:
# [1] = tested on: ovalbumin-immunized guinea pigs; assay: Respiratory tract constriction suppression action, ovalbumin-induced (Test Example 3); type: in vivo, Hartley guinea pigs; settings: result in words; test medicament given into hind leg vein after induction with 0.3 mg/kg ovalbumin, measured for 15 minutes
# Experimental: Four-week old Hartley guinea pigs (male) were immunized by intraperitoneal administration of ovalbumin (Sigma, Grade V) in amounts of 1 mg for each animal on the day on which the experiment was started, 3 mg for each animal after 2 days, and 10 mg for each animal after 4 days. Twelve to fourteen days after the final immunization, the ovalbumin-immunized guinea pigs were anesthetized by intraperitoneal administration of about 40 mg/kg of pentobarbital (Somnopentyl), and the tracheas were taken out. Subsequently, a cannula (SP-110, Natsume) was inserted into each trachea, and one end of the cannula was connected to an artificial respirator (Model-b83, Harvard). The aeration conditions were set at 6 ml per kilogram and 60 times per 1 minute. Further, a cannula for medicament administration (JMS wing needle 23G 3/4) was inserted into a hind leg vein. Myoblock (Organon Technica) was administered in an amount of 0.5 mg/kg from the cannula inserted into the hind leg vein to stop the spontaneous breathing, and after 2 or 3 minutes, 0.3 mg/kg of ovalbumin was administered to induce constriction of respiratory tract. The increase of airway resistance value 2 minutes after the induction (measurement apparatuses: pressure transducer TR-603T, respiratory amplifier AR-601G, and recorder RTA-3100, Nihon Kohden Corp.) was confirmed to be above 80 cm H2O or higher, and then, a solution of a test medicament was administered from the cannula inserted into the hind leg vein, and the airway resistance value was continuously measured for 15 minutes after the administration to determine the effect.
# [2] = tested on: myosin regulatory light chain; assay: Action on amount of phosphorylated myosin regulatory light chain in the cells (Test Example 1); type: cell-based, human; settings: neutrophils of healthy volunteers, reaction with test compound at 25°C for 5 minutes, read-out: Inhibition of myosin regulatory light chain phosphorylation (IC50: µM)
# Method in brief: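 Neutrophil suspension (5 x 10^6/ml, HBSS) reacted 5 min at 25 °C with test compound at various concentrations. TCA-stopped, urea-extracted and run on SDS-PAGE, then immunoblotted with antibody specific for phosphorylated myosin regulatory light chain, detected by HRP/ECL and quantified by densitometry. Result given as % inhibition of phosphorylation.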
# Neutrophils = assay: Neutrophil migration inhibitory action, Boyden Chamber, FMLP (Test Example 5); type: cell-based, human; settings: Homo sapiens, Neutrophil, 0.5 h, FMLP (1 µM), migration at 37°C for 30 minutes; read-out: Neutrophil migration inhibition IC50
# Method in brief: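 Neutrophils from healthy donors' peripheral blood (8 x 10^6/ml) were preincubated 5 min at room temperature with compound. Migrated cells were stained and absorbance read at 595 nm; inhibition (%) was calculated against compound-free wells.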
# [3] = tested on: myosin light chain phosphorylation enzyme (MLCK); assay: Action on myosin light chain phosphorylation enzyme (MLCK) activity, ELISA (second Test Example 7); type: biochemical, chicken; settings: result in words
# Experimental: A myosin light chain phosphorylation enzyme (MLCK) was purified from chicken gizzard smooth muscle by a conventional method (Yoshida, M., et al., J. Biochem., 99, 1027-1036 (1986)). The myosin regulatory light chain as a substrate was purified from the chicken gizzard smooth muscle by a conventional method (Grand, R. J., et al., Biochem. J., 211, 267-272 (1983)). The MLCK activity was measured by ELISA using pLC1 described in Test Example 1 (Sakurada, K., et al., J. Biochem., 115, 18-21 (1994)). […] In a volume of 100 µ1 each of 20% aqueous phosphoric acid solution was added to each well to terminate the enzymatic reaction. Each well was washed with 25 mM Tris/HCl buffer (TTBS) containing 0.1% Tween 20, and then 100 µl each of pLC1 described in Test Example 1 was added to each well and incubated at room temperature for 90 minutes. Each well was washed with TTBS, and then 100 µl of the HRP-labeled rabbit anti-mouse IgG antibodies (Bio-Rad) were added to each well and incubated at room temperature for 90 minutes. […] 50 µl of 4 N sulfuric acid was added to each well to terminate the reaction, and then absorbance was measured by using an immunoplate reader (Bio-Rad).
# Japanese white rabbit = assay: Intraocular pressure reducing action (Test Example 4); type: in vivo; settings: Oryctolagus cuniculus, topical; 50 µl of test compound (1% aqueous solution) dropped to the left eye, after 2 hours; read-out: Intraocular pressure reducing action (reduction ratio) (%)
# Experimental: A Japanese white rabbit having a body weight of about 2 kg was placed in a positioner and naturalized for one week before the experiment. An ophthalmologic local […] (Benoxil) was administered to the left eye, and then intraocular pressure was measured by using a tonometer (Classic 30, Solan). The initial value of the intraocular pressure was measured, then 50 μl of a test compound (1% aqueous solution) was dropped to the left eye, and after 2 hours, the intraocular pressure was measured. The intraocular pressure reducing action of the test compounds is shown in Table 7 mentioned below as ratios (%) of reduction of intraocular pressure based on the initial value of the intraocular pressure.
structure (smiles),measurement,setting,value
"c1cc(NC2CCCNC2)c2ccncc2c1 (racemic) [Example 29, 3-N-(5-Isoquinolyl)aminopiperidine hydrochloride]",constriction of respiratory tract (airway resistance value),[1],significantly improved the constriction of respiratory tract
same,IC50,"[2]; Homo sapiens, Neutrophil, 5 min",≤ 40 µM
same,IC50,[2]; hydrochloride,≤ 20 µM
same,IC50,Neutrophils,≤ 40 µM
same,inhibition of MLCK,[3],did not inhibit MLCK
same,inhibition in vivo at 1 %,Japanese white rabbit,18.8%
